Measured values reported in ChEMBL document CHEMBL4406898, “Dual mode of binding of anti cancer drug epirubicin to G-quadruplex [d-(TTAGGGT)]4 containing human telomeric DNA sequence induces thermal stabilization” (Bioorg Med Chem, 2019).
The source made the active and inactive calls. No cut-off for these calls is given here.

Assays:
[1] = Self aggregation behaviour in phosphate buffer solution assessed as effect on absorption spectra at >10 uM by absorption spectroscopy; format: physicochemical
Quadruplex DNA [2] = experiment: Binding affinity to human telomeric 7 G-quadruplex DNA assessed as hypochromic red shift at 7 uM by absorption spectroscopy relative to untreated control; format: nucleic-acid assay
Quadruplex DNA [3] = experiment: Binding affinity to human telomeric 7 G-quadruplex DNA assessed as hypochromic red shift by measuring difference in maximum absorption at 7 uM by absorption spectroscopy; format: nucleic-acid assay
Quadruplex DNA [4] = experiment: Binding affinity to human telomeric 7 G-quadruplex DNA assessed as drug-DNA complex stoichiometry ratio of 1:1 at 7 uM by absorption spectroscopy; format: nucleic-acid assay
Quadruplex DNA [5] = experiment: Binding affinity to human telomeric 7 G-quadruplex DNA assessed as drug-DNA complex stoichiometry ratio of 2:1 at 7 uM by absorption spectroscopy; format: nucleic-acid assay
Quadruplex DNA [6] = experiment: Binding affinity to human telomeric 7 G-quadruplex DNA incubated for 5 mins by UV-visible spectrophotometric analysis; format: nucleic-acid assay
Quadruplex DNA [7] = experiment: Binding affinity to human telomeric 7 G-quadruplex DNA assessed as fluorescence quenching at 7 uM by fluorescence spectral analysis; format: nucleic-acid assay
Quadruplex DNA [8] = experiment: Binding affinity to human telomeric 7 G-quadruplex DNA assessed as fluorescence quenching at 7 uM measured at 559.5 nanometer by fluorescence spectral analysis relative to control; format: nucleic-acid assay
Quadruplex DNA [9] = experiment: Binding affinity to human telomeric 7 G-quadruplex DNA assessed as fluorescence quenching at 7 uM measured at 591 nanometer by fluorescence spectral analysis relative to control; format: nucleic-acid assay
Quadruplex DNA [10] = experiment: Binding affinity to human telomeric 7 G-quadruplex DNA assessed as red shift in emission wavelength at 7 uM measured at 559.5 nanometer by fluorescence spectral analysis; format: nucleic-acid assay
Quadruplex DNA [11] = experiment: Binding affinity to human telomeric 7 G-quadruplex DNA assessed as red shift in emission wavelength at 7 uM measured at 591 nanometer by fluorescence spectral analysis; format: nucleic-acid assay
Quadruplex DNA [12] = experiment: Binding affinity to human telomeric 7 G-quadruplex DNA assessed as binding constant Kb1 at 591 nanometer by spectrofluorimetric analysis; format: nucleic-acid assay
Quadruplex DNA [13] = experiment: Binding affinity to human telomeric 7 G-quadruplex DNA assessed as binding constant Kb2 at 591 nanometer by spectrofluorimetric analysis; format: nucleic-acid assay
Quadruplex DNA [14] = experiment: Binding affinity to human telomeric 7 G-quadruplex DNA assessed as binding constant Kb1 at 559.5 nanometer by spectrofluorimetric analysis; format: nucleic-acid assay
Quadruplex DNA [15] = experiment: Binding affinity to human telomeric 7 G-quadruplex DNA assessed as binding constant Kb2 at 559.5 nanometer by spectrofluorimetric analysis; format: nucleic-acid assay
Quadruplex DNA [16] = experiment: Binding affinity to human telomeric 7 G-quadruplex DNA assessed as stern-volmer quenching constant in compound:DNA ratio of 0.4 to 1.0 by spectrofluorimetric analysis; format: nucleic-acid assay
Quadruplex DNA [17] = experiment: Binding affinity to human telomeric 7 G-quadruplex DNA assessed as quenching constant by spectrofluorimetric analysis; format: nucleic-acid assay
Quadruplex DNA [18] = experiment: Effect on parallel topology of human telomeric 7 G-quadruplex DNA assessed as reduction in negative band ellipticity at compound:DNA ratio of 3:0 by CD spectroscopy relative to control; format: nucleic-acid assay; design: scale not given: the % may be the effect or the level left
Quadruplex DNA [19] = experiment: Effect on parallel topology of human telomeric 7 G-quadruplex DNA assessed as reduction in negative band ellipticity at compound:DNA ratio of 4:0 by CD spectroscopy relative to control; format: nucleic-acid assay; design: scale not given: the % may be the effect or the level left
Quadruplex DNA [20] = experiment: Effect on parallel topology of human telomeric 7 G-quadruplex DNA assessed as reduction in […] band ellipticity at 264 nm at compound:DNA ratio of 4:0 by CD spectroscopy relative to control; format: nucleic-acid assay; design: scale not given: the % may be the effect or the level left
Quadruplex DNA [21] = experiment: Binding affinity to human telomeric 7 G-quadruplex DNA by CD spectroscopy; format: nucleic-acid assay
Quadruplex DNA [22] = experiment: Binding affinity to human telomeric 7 G-quadruplex DNA assessed as melting temperature compound:DNA ratio of 1:0 by CD spectroscopy analysis; format: nucleic-acid assay
Quadruplex DNA [23] = experiment: Binding affinity to human telomeric 7 G-quadruplex DNA assessed as melting temperature compound:DNA ratio of 2:0 to 4:0 by CD spectroscopy analysis; format: nucleic-acid assay
Quadruplex DNA [24] = experiment: Binding affinity to human telomeric 7 G-quadruplex DNA assessed as change in melting temperature compound:DNA ratio of 2:0 by CD spectroscopy analysis; format: nucleic-acid assay
Quadruplex DNA [25] = experiment: Binding affinity to human telomeric 7 G-quadruplex DNA assessed as melting temperature Tm1 compound:DNA ratio of 0:5 by CD spectroscopy analysis (reference value: 58.8 +/- 0.4 degreeC); format: nucleic-acid assay
Quadruplex DNA [26] = experiment: Binding affinity to human telomeric 7 G-quadruplex DNA assessed as melting temperature Tm1 compound:DNA ratio of 2:0 by CD spectroscopy analysis (reference value: 58.8 +/- 0.4 degreeC); format: nucleic-acid assay
Quadruplex DNA [27] = experiment: Binding affinity to human telomeric 7 G-quadruplex DNA assessed as delta Tm1 compound:DNA ratio of 0:5 by CD spectroscopy analysis; format: nucleic-acid assay
Quadruplex DNA [28] = experiment: Binding affinity to human telomeric 7 G-quadruplex DNA assessed as delta Tm1 compound:DNA ratio of 2:0 by CD spectroscopy analysis; format: nucleic-acid assay
Quadruplex DNA [29] = experiment: Binding affinity to human telomeric 7 G-quadruplex DNA assessed as melting temperature Tm2 compound:DNA ratio of 2:0 by CD spectroscopy analysis (reference value: 64.3 +/- 0.2 degreeC); format: nucleic-acid assay
Quadruplex DNA [30] = experiment: Binding affinity to human telomeric 7 G-quadruplex DNA assessed as delta Tm2 compound:DNA ratio of 2:0 by CD spectroscopy analysis; format: nucleic-acid assay
Quadruplex DNA [31] = experiment: Binding affinity to human telomeric 7 G-quadruplex DNA assessed as melting temperature Tm3 compound:DNA ratio of 0:5 by CD spectroscopy analysis; format: nucleic-acid assay
Quadruplex DNA [32] = experiment: Binding affinity to human telomeric 7 G-quadruplex DNA assessed as delta Tm3 compound:DNA ratio of 2:0 by CD spectroscopy analysis; format: nucleic-acid assay
Quadruplex DNA [33] = experiment: Binding affinity to human telomeric 7 G-quadruplex DNA assessed as fluorescence quenching at 7 uM in presence of 100 to 150 mM K+ ion by fluorescence spectral analysis relative to control; format: nucleic-acid assay
Quadruplex DNA [34] = experiment: Binding affinity to human telomeric 7 G-quadruplex DNA assessed as hypochromic red shift at 7 uM in presence of 100 to 150 mM K+ ion by fluorescence spectral analysis; format: nucleic-acid assay
Quadruplex DNA [35] = experiment: Binding affinity to human telomeric 7 G-quadruplex DNA assessed as fluorescence quenching at 7 uM in presence of water by fluorescence spectral analysis relative to control; format: nucleic-acid assay
Quadruplex DNA [36] = experiment: Binding affinity to human telomeric 7 G-quadruplex DNA assessed as hypochromic red shift at 7 uM in presence of water by fluorescence spectral analysis; format: nucleic-acid assay
Quadruplex DNA [37] = experiment: Binding affinity to human telomeric 7 G-quadruplex DNA assessed as fluorescence quenching at 7 uM in presence of 100 mM NaCl by fluorescence spectral analysis relative to control; format: nucleic-acid assay
Quadruplex DNA [38] = experiment: Binding affinity to human telomeric 7 G-quadruplex DNA assessed as hypochromic red shift at 7 uM in presence of 100 mM NaCl by fluorescence spectral analysis; format: nucleic-acid assay
Quadruplex DNA [39] = experiment: Binding affinity to human telomeric 22 G-quadruplex DNA assessed as binding constant in presence of NaCl by CD spectroscopy analysis; format: nucleic-acid assay
Quadruplex DNA [40] = experiment: Binding affinity to human telomeric 22 G-quadruplex DNA assessed as binding constant in presence of KCl by CD spectroscopy analysis; format: nucleic-acid assay
Tetrahymena thermophila [41] = experiment: Binding affinity to Tetrahymena thermophila telomeric 22 G-quadruplex DNA assessed as binding constant Kb1
Tetrahymena thermophila [42] = experiment: Binding affinity to Tetrahymena thermophila telomeric 22 G-quadruplex DNA assessed as binding constant Kb2
Quadruplex DNA [43] = experiment: Binding affinity to human telomeric 7 G-quadruplex DNA assessed as stern-volmer quenching constant in compound:DNA ratio of 1.2 to 3.8 by spectrofluorimetric analysis; format: nucleic-acid assay
Quadruplex DNA [44] = experiment: Binding affinity to human telomeric 7 G-quadruplex DNA at compound:DNA ratio of 0.4 to 1.0 by spectrofluorimetric analysis; format: nucleic-acid assay
Quadruplex DNA [45] = experiment: Binding affinity to human telomeric 7 G-quadruplex DNA at compound:DNA ratio of 2.3 to 6.1 by spectrofluorimetric analysis; format: nucleic-acid assay
Quadruplex DNA [46] = experiment: Binding affinity to human telomeric 7 G-quadruplex DNA assessed as binding constant Kb1 in water by fluorescence spectral analysis; format: nucleic-acid assay
Quadruplex DNA [47] = experiment: Binding affinity to human telomeric 7 G-quadruplex DNA assessed as binding constant Kb2 in water by fluorescence spectral analysis; format: nucleic-acid assay
Quadruplex DNA [48] = experiment: Binding affinity to human telomeric 7 G-quadruplex DNA assessed as binding constant Kb1 in 100 mM NaCl by fluorescence spectral analysis; format: nucleic-acid assay
Quadruplex DNA [49] = experiment: Binding affinity to human telomeric 7 G-quadruplex DNA assessed as binding constant Kb2 in 100 mM NaCl by fluorescence spectral analysis; format: nucleic-acid assay
Quadruplex DNA [50] = experiment: Binding affinity to human telomeric 7 G-quadruplex DNA assessed as binding constant Kb1 in absence of KCl by fluorescence spectral analysis; format: nucleic-acid assay
Quadruplex DNA [51] = experiment: Binding affinity to human telomeric 7 G-quadruplex DNA assessed as binding constant Kb2 in absence of KCl by fluorescence spectral analysis; format: nucleic-acid assay
Quadruplex DNA [52] = experiment: Binding affinity to human telomeric 7 G-quadruplex DNA assessed as binding constant Kb1 in 50 mM of KCl by fluorescence spectral analysis; format: nucleic-acid assay
Quadruplex DNA [53] = experiment: Binding affinity to human telomeric 7 G-quadruplex DNA assessed as binding constant Kb2 in 50 mM of KCl by fluorescence spectral analysis; format: nucleic-acid assay
Quadruplex DNA [54] = experiment: Binding affinity to human telomeric 7 G-quadruplex DNA assessed as binding constant Kb1 in 150 mM of KCl by fluorescence spectral analysis; format: nucleic-acid assay
Quadruplex DNA [55] = experiment: Binding affinity to human telomeric 7 G-quadruplex DNA assessed as binding constant Kb2 in 150 mM of KCl by fluorescence spectral analysis; format: nucleic-acid assay
Quadruplex DNA [56] = experiment: Binding affinity to human telomeric 7 G-quadruplex DNA assessed as binding constant Kb1 in 100 mM KCl by fluorescence spectral analysis; format: nucleic-acid assay
Quadruplex DNA [57] = experiment: Binding affinity to human telomeric 7 G-quadruplex DNA assessed as binding constant Kb2 in 100 mM KCl by fluorescence spectral analysis; format: nucleic-acid assay

Activity [1]: Active | Activity (Quadruplex DNA [2]): 47.6% | deltaA (Quadruplex DNA [3]): 9 nm | Activity (Quadruplex DNA [4]): Active | Activity (Quadruplex DNA [5]): Active | Kb (Quadruplex DNA [6]): 2.3 ×10⁶ /M | Activity (Quadruplex DNA [7]): Active | Activity (Quadruplex DNA [8]): 93% | Activity (Quadruplex DNA [9]): 92% | deltaA (Quadruplex DNA [10]): 8 nm | deltaA (Quadruplex DNA [11]): 16 nm | Kb (Quadruplex DNA [12]): 2.7 ×10⁶ /M | Kb (Quadruplex DNA [13]): 3.8 ×10⁶ /M | Kb (Quadruplex DNA [14]): 2 ×10⁶ /M | Kb (Quadruplex DNA [15]): 4.6 ×10⁵ /M | KSV (Quadruplex DNA [16]): 4.1 ×10⁵ /M | Kq (Quadruplex DNA [17]): 7.5 ×10¹⁴ /M/s | Activity (Quadruplex DNA [18]): 90% | Activity (Quadruplex DNA [19]): 59% | Activity (Quadruplex DNA [20]): 18% | Kb (Quadruplex DNA [21]): 1.9 ×10⁶ /M | Tm (Quadruplex DNA [22]): 65 °C | Tm (Quadruplex DNA [23]): 70 °C | ΔTm (Quadruplex DNA [24]): 15 °C | Tm (Quadruplex DNA [25]): 68.1 °C | Tm (Quadruplex DNA [26]): 70.4 °C | ΔTm (Quadruplex DNA [27]): 9.3 °C | ΔTm (Quadruplex DNA [28]): 11.6 °C | Tm (Quadruplex DNA [29]): 77.5 °C | ΔTm (Quadruplex DNA [30]): 13.2 °C | Tm (Quadruplex DNA [31]): 90.6 °C | ΔTm (Quadruplex DNA [32]): 26.3 °C | Activity (Quadruplex DNA [33]): 89% | deltaA (Quadruplex DNA [34]): 8 to 16 nm | Activity (Quadruplex DNA [35]): 60% | deltaA (Quadruplex DNA [36]): 0.5 nm | Activity (Quadruplex DNA [37]): 39% | deltaA (Quadruplex DNA [38]): 1 nm | Kb (Quadruplex DNA [39]): 2.5 ×10⁴ /M | Kb (Quadruplex DNA [40]): 3 to 3.6 ×10⁵ /M | Kb (Tetrahymena thermophila [41]): 1.9 ×10⁶ /M | Kb (Tetrahymena thermophila [42]): 2.3 ×10⁵ /M | KSV (Quadruplex DNA [43]): 1.1 ×10⁶ /M | Kb (Quadruplex DNA [44]): 2 ×10⁶ /M | Kb (Quadruplex DNA [45]): 4.6 ×10⁵ /M | Kb (Quadruplex DNA [46]): 8.4 ×10⁴ /M | Kb (Quadruplex DNA [47]): 53 ×10⁴ /M | Kb (Quadruplex DNA [48]): 3.5 ×10⁴ /M | Kb (Quadruplex DNA [49]): 7.3 ×10⁴ /M | Kb (Quadruplex DNA [50]): 1.8 ×10⁴ /M | Kb (Quadruplex DNA [51]): 0.24 ×10⁴ /M | Kb (Quadruplex DNA [52]): 2.7 ×10⁶ /M | Kb (Quadruplex DNA [53]): 3.8 ×10⁶ /M | Kb (Quadruplex DNA [54]): 1.3 to 1.9 ×10⁶ /M | Kb (Quadruplex DNA [55]): 4.6 ×10⁶ /M | Kb (Quadruplex DNA [56]): 2.3 ×10⁶ /M | Kb (Quadruplex DNA [57]): 4 ×10⁶ /M
Compound: COc1cccc2c1C(=O)c1c(O)c3c(c(O)c1C2=O)C[C@@](O)(C(=O)CO)C[C@@H]3O[C@H]1C[C@H](N)[C@@H](O)[C@H](C)O1 [EPIRUBICIN]
